In test [1] the target is T1, serotonine transporter (SERT) receptor (Homo sapiens, UniProt P31645).
T1 construct: expressed in transfected cells; host or cells: CHO cells
As to the kind of experiment: Binding assay SERT (h), [3H]imipramine, CHO cells. To be noted: read-out: SERT [%]. In short, it runs like this:
(§1)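 At 1×10^−6 M, compounds were assessed for their effect on specific radioligand binding, computed as total less nonspecific binding (excess unlabelled ligand present).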

The subject of a further test is sigma σ receptor. As to the kind of experiment: Binding assay σ (non-selective), [3H]DTG, rat cerebral cortex. The settings on record: percent inhibition of control specific binding; compounds tested at 1×10^−6 M. In short, it runs like this:
as §1

A further test has as its system adrenergic α1 receptor. As to the kind of experiment: Binding assay α1 (non-selective), [3H]prazosin, rat cerebral cortex. To be noted: percent inhibition of control specific binding; compounds tested at 1×10^−6 M. Summed up:
as §1

The next test has as its target T2, muscarinic M3 receptor (Homo sapiens, UniProt P20309).
T2 construct: expressed in transfected cells; host or cells: CHO cells
As to the kind of experiment: Binding assay M3 (h), [3H]4-DAMP, CHO cells. To be noted: read-out: M3 [%]. Summed up:
as §1

Test [2] addresses T3, serotoninergic receptor 5-HT2C (Homo sapiens, UniProt P28335).
T3 construct: expressed in transfected cells; host or cells: HEK-293 cells
T3 sequence (P28335 33-458): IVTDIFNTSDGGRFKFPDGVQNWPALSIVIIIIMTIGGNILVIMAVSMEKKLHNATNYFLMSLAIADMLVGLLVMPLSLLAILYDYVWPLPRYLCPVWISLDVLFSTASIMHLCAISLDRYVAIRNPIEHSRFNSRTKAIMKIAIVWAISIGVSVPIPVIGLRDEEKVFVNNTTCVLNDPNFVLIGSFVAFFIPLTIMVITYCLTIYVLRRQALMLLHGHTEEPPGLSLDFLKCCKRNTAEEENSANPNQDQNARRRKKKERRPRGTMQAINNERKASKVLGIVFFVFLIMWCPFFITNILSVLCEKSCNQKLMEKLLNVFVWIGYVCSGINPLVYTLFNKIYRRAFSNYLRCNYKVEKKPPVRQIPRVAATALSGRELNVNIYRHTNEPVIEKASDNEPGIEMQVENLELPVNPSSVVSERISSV
In words: Binding assay 5-HT2C (h), [3H]mesulergine, HEK-293 cells. To be noted: read-out: 5-HT2C [%]. Summed up: as §1

A further test concerns the target dopaminergic D3 receptor (Homo sapiens, UniProt P35462). In words: Binding assay D3 (h), [3H]methyl-spiperone, CHO cells. The settings on record: read-out: D3 [%]. Also noted: expressed in transfected cells; host or cells: CHO cells. In short, it runs like this:
as §1

In test [3] the target is serotoninergic 5-HT6 receptor (Homo sapiens, UniProt P50406). In words: Binding assay 5-HT6 (h), [3H]LSD, CHO cells. Details: expressed in transfected cells; host or cells: CHO cells. To be noted: read-out: 5-HT6. Summed up:
as §1

The target of test [4] is serotoninergic 5-HT7 receptor (Homo sapiens, UniProt P34969). In words: Binding assay 5-HT7 (h), [3H]LSD, CHO cells. Details: expressed in transfected cells; host or cells: CHO cells. To be noted: read-out: 5-HT7. Summed up: as §1
Sequence of serotoninergic 5-HT7 receptor (P34969 whole entry): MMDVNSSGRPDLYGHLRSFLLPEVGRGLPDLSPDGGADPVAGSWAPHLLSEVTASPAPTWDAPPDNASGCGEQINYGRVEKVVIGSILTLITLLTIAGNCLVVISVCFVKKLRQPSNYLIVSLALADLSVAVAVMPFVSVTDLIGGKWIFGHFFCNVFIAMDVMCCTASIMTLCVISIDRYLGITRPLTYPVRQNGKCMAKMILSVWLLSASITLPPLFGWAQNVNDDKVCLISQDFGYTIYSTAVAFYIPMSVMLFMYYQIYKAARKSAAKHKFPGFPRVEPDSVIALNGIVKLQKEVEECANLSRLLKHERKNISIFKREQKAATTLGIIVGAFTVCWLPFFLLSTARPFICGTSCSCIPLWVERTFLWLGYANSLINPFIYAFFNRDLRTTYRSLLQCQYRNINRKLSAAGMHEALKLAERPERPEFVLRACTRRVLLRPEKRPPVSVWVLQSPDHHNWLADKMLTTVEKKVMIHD
Another test addresses T4, adrenergic α2C receptor (Homo sapiens, UniProt P18825).
T4 sequence (P18825 1-462): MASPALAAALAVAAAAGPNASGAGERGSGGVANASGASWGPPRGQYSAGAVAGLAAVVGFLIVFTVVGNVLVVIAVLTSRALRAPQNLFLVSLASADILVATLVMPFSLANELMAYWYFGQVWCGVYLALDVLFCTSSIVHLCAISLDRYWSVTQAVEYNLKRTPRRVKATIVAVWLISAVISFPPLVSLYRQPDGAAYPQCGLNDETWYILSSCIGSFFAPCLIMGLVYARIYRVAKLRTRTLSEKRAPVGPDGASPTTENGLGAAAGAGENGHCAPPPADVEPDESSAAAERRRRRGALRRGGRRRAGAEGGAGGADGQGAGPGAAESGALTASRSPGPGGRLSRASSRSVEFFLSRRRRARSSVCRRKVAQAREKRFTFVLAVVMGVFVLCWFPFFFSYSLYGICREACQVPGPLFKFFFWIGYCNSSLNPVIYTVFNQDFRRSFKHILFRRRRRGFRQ
As to the kind of experiment: Binding assay α2C (h), [3H]RX 821002, CHO cells. Details: expressed in transfected cells; host or cells: CHO cells. To be noted: read-out: α2C [%]. In short, it runs like this:
as §1

A further test has as its target dopaminergic D2 receptor (Homo sapiens, UniProt P14416). As to the kind of experiment: Binding assay D2S (h), [3H]methyl-spiperone, HEK-293 cells. The settings on record: read-out: D2 [%]. Also noted: expressed in transfected cells; host or cells: HEK-293 cells. In short, it runs like this: as §1
Test [5] deals with T5, serotoninergic 5-HT1A receptor (Homo sapiens, UniProt P08908).
T5 sequence (P08908 1-422): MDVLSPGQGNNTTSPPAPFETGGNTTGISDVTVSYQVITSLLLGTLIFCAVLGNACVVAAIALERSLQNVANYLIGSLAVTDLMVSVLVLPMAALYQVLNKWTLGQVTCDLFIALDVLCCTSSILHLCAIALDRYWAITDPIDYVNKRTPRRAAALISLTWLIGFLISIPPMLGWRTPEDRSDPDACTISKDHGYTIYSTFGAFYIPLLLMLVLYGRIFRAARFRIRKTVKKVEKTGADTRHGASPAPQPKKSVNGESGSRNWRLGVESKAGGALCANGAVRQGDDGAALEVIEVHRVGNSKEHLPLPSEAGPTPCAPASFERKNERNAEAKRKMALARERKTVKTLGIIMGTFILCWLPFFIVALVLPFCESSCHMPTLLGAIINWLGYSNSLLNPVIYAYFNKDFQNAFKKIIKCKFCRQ
As to the kind of experiment: Binding assay 5-HT1A (h), [3H]8-OH-DPAT, HEK-293 cells. Details: expressed in transfected cells; host or cells: HEK-293 cells. To be noted: read-out: 5-HT1A. Summed up:
as §1

In test [6] the target is serotoninergic 5-HT2A receptor (Homo sapiens, UniProt P28223). In words: Binding assay 5-HT2A (h), [3H]ketanserin, HEK-293 cells. Also noted: expressed in transfected cells; host or cells: HEK-293 cells. The settings on record: read-out: 5-HT2A. In short, it runs like this: as §1
Sequence of serotoninergic 5-HT2A receptor (P28223 whole entry): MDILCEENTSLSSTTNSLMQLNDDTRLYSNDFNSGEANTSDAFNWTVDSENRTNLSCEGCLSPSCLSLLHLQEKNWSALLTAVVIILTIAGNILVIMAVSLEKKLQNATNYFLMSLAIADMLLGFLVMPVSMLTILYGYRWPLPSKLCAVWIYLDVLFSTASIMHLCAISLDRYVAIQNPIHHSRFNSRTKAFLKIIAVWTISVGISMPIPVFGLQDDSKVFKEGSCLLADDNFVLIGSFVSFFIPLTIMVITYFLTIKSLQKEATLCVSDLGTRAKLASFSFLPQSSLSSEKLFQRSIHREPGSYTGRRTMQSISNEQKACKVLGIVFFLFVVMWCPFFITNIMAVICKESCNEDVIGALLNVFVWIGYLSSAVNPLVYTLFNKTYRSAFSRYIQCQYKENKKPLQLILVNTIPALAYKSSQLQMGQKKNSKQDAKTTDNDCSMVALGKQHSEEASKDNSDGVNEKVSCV
Test [7] has as its target histaminergic H1 receptor (Homo sapiens, UniProt P35367). In words: Binding assay H1 (h), [3H]pyrilamine, HEK-293 cells. Also noted: expressed in transfected cells; host or cells: HEK-293 cells. The settings on record: read-out: H1 [%]. In short, it runs like this:
as §1

Experimental findings from US8822517B2, “Arylosulfonamides for the treatment of CNS diseases” (Adamed SP. Z O.O., priority 2010, dated 2014) are described below.

Sequence of serotoninergic 5-HT6 receptor (P50406 whole entry): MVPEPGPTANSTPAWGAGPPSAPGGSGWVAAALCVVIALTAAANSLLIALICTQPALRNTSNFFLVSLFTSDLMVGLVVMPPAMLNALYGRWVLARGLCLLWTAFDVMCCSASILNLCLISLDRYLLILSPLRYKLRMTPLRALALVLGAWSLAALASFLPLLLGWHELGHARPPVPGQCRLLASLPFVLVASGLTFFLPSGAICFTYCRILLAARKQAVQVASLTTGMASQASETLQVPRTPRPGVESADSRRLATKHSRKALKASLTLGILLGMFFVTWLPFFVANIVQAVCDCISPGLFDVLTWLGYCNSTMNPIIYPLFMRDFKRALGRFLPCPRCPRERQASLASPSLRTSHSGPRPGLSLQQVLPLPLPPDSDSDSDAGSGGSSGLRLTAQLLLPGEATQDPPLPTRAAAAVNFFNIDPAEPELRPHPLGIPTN
Sequence of dopaminergic D2 receptor (P14416 1-414 isoform P14416-2): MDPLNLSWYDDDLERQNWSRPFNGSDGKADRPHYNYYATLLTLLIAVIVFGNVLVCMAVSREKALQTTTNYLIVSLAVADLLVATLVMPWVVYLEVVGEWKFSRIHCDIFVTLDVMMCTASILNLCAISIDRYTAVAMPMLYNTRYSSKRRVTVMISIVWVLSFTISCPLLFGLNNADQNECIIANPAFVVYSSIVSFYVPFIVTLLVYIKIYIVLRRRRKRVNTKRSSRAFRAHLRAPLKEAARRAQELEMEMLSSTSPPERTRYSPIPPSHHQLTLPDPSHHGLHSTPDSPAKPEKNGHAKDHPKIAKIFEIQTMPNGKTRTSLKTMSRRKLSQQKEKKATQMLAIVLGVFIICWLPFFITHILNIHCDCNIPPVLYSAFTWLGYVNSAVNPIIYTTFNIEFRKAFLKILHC
Sequence of histaminergic H1 receptor (P35367 whole entry): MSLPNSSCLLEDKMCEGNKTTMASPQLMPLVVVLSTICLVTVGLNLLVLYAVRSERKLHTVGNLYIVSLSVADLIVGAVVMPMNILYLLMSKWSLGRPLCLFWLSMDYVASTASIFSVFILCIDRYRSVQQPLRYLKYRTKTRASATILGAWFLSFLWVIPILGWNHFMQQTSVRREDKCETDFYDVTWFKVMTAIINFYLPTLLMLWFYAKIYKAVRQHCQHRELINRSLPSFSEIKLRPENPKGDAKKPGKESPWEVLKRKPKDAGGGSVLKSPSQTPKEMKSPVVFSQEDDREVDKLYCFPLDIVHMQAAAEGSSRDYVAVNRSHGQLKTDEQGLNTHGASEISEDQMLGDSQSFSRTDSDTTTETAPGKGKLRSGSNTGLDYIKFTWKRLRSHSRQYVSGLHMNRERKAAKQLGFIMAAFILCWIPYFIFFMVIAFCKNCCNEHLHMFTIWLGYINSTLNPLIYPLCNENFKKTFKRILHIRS
Sequence of dopaminergic D3 receptor (P35462 whole entry): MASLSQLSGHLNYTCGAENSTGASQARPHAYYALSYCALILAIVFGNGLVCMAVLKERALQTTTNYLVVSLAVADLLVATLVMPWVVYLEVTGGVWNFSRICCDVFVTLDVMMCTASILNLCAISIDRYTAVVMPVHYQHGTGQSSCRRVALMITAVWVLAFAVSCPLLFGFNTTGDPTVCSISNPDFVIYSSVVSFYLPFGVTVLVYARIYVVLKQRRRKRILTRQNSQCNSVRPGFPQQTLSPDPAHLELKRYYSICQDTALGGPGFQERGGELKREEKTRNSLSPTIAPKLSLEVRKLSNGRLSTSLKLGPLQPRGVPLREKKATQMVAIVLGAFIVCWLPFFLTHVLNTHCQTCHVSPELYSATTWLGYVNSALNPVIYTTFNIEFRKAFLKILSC
T2 sequence (P20309 whole entry): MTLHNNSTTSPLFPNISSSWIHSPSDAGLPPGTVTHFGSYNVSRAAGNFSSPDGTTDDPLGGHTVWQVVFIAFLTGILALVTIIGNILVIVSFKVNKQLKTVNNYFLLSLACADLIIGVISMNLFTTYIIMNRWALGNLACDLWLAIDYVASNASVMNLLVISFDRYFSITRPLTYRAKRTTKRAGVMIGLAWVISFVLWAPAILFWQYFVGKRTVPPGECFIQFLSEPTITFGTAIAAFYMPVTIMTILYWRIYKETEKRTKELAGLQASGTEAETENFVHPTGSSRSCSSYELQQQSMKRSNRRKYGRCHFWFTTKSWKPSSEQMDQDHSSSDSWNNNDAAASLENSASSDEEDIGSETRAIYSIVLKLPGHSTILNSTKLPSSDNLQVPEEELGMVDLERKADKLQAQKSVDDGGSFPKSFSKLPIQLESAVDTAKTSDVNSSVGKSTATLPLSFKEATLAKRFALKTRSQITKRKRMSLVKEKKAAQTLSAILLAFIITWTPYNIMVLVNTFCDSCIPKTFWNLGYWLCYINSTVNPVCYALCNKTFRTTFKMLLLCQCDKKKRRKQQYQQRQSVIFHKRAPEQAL
T1 sequence (P31645 whole entry): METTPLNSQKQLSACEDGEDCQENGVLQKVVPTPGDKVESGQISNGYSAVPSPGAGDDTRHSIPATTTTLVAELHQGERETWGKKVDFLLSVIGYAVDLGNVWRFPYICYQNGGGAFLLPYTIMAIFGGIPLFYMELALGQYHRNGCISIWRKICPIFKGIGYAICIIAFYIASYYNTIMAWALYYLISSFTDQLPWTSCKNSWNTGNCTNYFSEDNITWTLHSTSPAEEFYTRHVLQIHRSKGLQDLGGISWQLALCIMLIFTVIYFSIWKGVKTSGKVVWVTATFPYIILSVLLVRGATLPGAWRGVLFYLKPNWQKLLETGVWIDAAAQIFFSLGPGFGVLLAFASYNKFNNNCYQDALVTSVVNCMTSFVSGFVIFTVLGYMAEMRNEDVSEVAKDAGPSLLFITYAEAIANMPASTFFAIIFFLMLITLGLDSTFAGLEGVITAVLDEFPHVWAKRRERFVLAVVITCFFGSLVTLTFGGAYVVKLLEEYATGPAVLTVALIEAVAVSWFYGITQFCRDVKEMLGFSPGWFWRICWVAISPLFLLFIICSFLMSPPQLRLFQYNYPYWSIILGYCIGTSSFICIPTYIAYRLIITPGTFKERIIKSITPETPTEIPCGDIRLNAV

As to `O=S(=O)(NCCCN1CCN(c2nsc3ccccc23)CC1)c1ccc(Br)cc1` [Compound 252, N-[3-[4-(1,2-Benzothiazol-3-yl)piperazin-1-yl]propyl]-4-bromobenzenesulphonamide], the inhibition at 1 µM came out at 94% in [1]; 16% at muscarinic M3 receptor; 84% in test [2]; 98% on dopaminergic D3 receptor; 93% in test [3]; 99% in test [4]. Further, the inhibition at 1 µM at adrenergic α2C receptor was 95%; at dopaminergic D2 receptor, 97%; in test [5], 99%; in [6], 101%; in [7] it was -77%. For the same compound, the “σ [%]” value with sigma σ receptor is on record as 59%. Also, in the test with adrenergic α1 receptor, the “α1 [%]” value is 27%.

Regarding `O=S(=O)(NCCCN1CCN(c2nsc3ccccc23)CC1)c1cccc(Br)c1` [Compound 253, N-[3-[4-(1,2-Benzothiazol-3-yl)piperazin-1-yl]propyl]-3-bromobenzenesulphonamide], the inhibition at 1 µM in test [1] is 79%; on muscarinic M3 receptor, 24%; in test [2] it was 89%; on dopaminergic D3 receptor, 99%; in test [3] it was 101%; in test [4], 99%. In addition, the inhibition at 1 µM on adrenergic α2C receptor amounted to 102%; on dopaminergic D2 receptor, 99%; in test [5], 99%; in test [6], 101%; in [7], 98%. In the test with sigma σ receptor, the “σ [%]” value stood at 64%. For the same compound, the “α1 [%]” value in the test on adrenergic α1 receptor came out at 97%.

As to `CC(C)(C)c1ccc(S(=O)(=O)NCCCN2CCN(c3nsc4ccccc34)CC2)cc1` [Compound 256, N-[3-[4-(1,2-Benzothiazol-3-yl)piperazin-1-yl]propyl]-4-tert-butylbenzenesulphonamide], the inhibition at 1 µM in test [1] stood at 93%; at muscarinic M3 receptor, 15%; in test [2], 94%; at dopaminergic D3 receptor it was 96%; in test [3] it was 95%; in [4], 100%. Besides, the inhibition at 1 µM at adrenergic α2C receptor was 92%; on dopaminergic D2 receptor, 97%; in test [5] it was 96%; in test [6], 102%; in test [7], 94%. In addition, the “σ [%]” value in the test with sigma σ receptor came out at 41%. Further, the “α1 [%]” value in the test on adrenergic α1 receptor is listed as 87%.

Turning to `O=S(=O)(NCCCN1CCN(c2nsc3ccccc23)CC1)c1ccc(C(F)(F)F)cc1` [Compound 257, N-[3-[4-(1,2-Benzothiazol-3-yl)piperazin-1-yl]propyl]-4-(trifluoromethyl)benzenesulphonamide], the inhibition at 1 µM in test [1] was found to be 93%; at muscarinic M3 receptor, 12%; in test [2], 83%; on dopaminergic D3 receptor, 100%; in test [3], 94%; in [4] it was 101%. For the same compound, the inhibition at 1 µM on adrenergic α2C receptor came out at 99%; on dopaminergic D2 receptor, 99%; in test [5], 99%; in test [6], 101%; in test [7], 91%. The “σ [%]” value in the test on sigma σ receptor was found to be 57%. The “α1 [%]” value in the test on adrenergic α1 receptor amounted to 94%.

Consider `O=S(=O)(NCCCN1CCN(c2nsc3ccccc23)CC1)c1cccc(C(F)(F)F)c1` [Compound 258, N-[3-[4-(1,2-Benzothiazol-3-yl)piperazin-1-yl]propyl]-3-(trifluoromethyl)benzenesulphonamide], for which the inhibition at 1 µM in [1] turned out to be 80%; at muscarinic M3 receptor, 15%; in test [2], 86%; at dopaminergic D3 receptor, 97%; in [3] it was 98%; in [4] it was 100%. Moreover, the inhibition at 1 µM came out at 98% on adrenergic α2C receptor; 95% at dopaminergic D2 receptor; 100% in [5]; 101% in test [6]; 97% in test [7]. The “σ [%]” value in the test with sigma σ receptor is on record as 61%. Also, in the test on adrenergic α1 receptor, the “α1 [%]” value was 97%.
